Results published in patent publication US6054435A, “6-O-substituted macrolides having antibacterial activity” (priority 1999, dated 2000).
Values after ≈ are worked out from the molar mass of the structure shown.

What was measured:
Experiment in all cases: in vitro antibacterial activity (MIC), agar dilution
Type in all cases: cell-based
[1] = system: Streptococcus Pneumonia 5979; settings: organism code ZZ; BHI agar, 35-37° C., 20 to 24 hours; unit assumed
How it was run: (§1)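 Plates of BHI agar were prepared with twelve aqueous dilutions of compound, then inoculated at 1:100 dilution, or 1:10 for slow growers like Streptococcus. After incubation they were inspected, and the lowest concentration yielding no growth, slight haze or sparse colonies was recorded as MIC.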

[2] = system: Staphylococcus aureus A5177; settings: organism code BB; BHI agar, 35-37° C., 20 to 24 hours; unit assumed
How it was run: as §1

[3] = system: Staphylococcus aureus CMX 642A; settings: organism code DD; BHI agar, 35-37° C., 20 to 24 hours; unit assumed
How it was run: as §1

[4] = system: Staphylococcus epidermidis 3519; settings: organism code HH; BHI agar, 35-37° C., 20 to 24 hours; unit assumed
How it was run: as §1

[5] = system: Streptococcus Pneumonia 5649; settings: organism code ZZA; BHI agar, 35-37° C., 20 to 24 hours; unit assumed
How it was run: as §1

[6] = system: Mycobacterium smegmatis ATCC 114; settings: organism code UU; BHI agar, 35-37° C., 20 to 24 hours; unit assumed
How it was run: as §1

[7] = system: Staphylococcus aureus CMX 553; settings: organism code FF; BHI agar, 35-37° C., 20 to 24 hours; unit assumed
How it was run: as §1

[8] = system: Streptococcus bovis A-5169; settings: organism code JJ; BHI agar, 35-37° C., 20 to 24 hours; unit assumed
How it was run: as §1

[9] = system: Nocardia Asteroides ATCC9970; settings: organism code VV; BHI agar, 35-37° C., 20 to 24 hours; unit assumed
How it was run: as §1

Escherichia coli DC-2 = settings: organism code SS; BHI agar, 35-37° C., 20 to 24 hours; unit assumed
How it was run: as §1

[10] = system: Staphylococcus aureus ATCC 6538P; settings: organism code AA; BHI agar, 35-37° C., 20 to 24 hours; unit assumed
How it was run: as §1

[11] = system: Streptococcus Pneumonia GYR 1171; settings: organism code YY; BHI agar, 35-37° C., 20 to 24 hours; unit assumed
How it was run: as §1

Candida albicans CCH 442 = settings: organism code TT; BHI agar, 35-37° C., 20 to 24 hours; unit assumed
How it was run: as §1

[12] = system: Streptococcus pyogenes PIU 2548; settings: organism code NN; BHI agar, 35-37° C., 20 to 24 hours; unit assumed
How it was run: as §1

[13] = system: Streptococcus pyogenes 930; settings: organism code MM; BHI agar, 35-37° C., 20 to 24 hours; unit assumed
How it was run: as §1

[14] = system: Haemophilis Influenzae DILL AMP R; settings: organism code WW; BHI agar, 35-37° C., 20 to 24 hours; unit assumed
How it was run: as §1

Escherichia coli JUHL = settings: organism code QQ; BHI agar, 35-37° C., 20 to 24 hours; unit assumed
How it was run: as §1

[15] = system: Enterococcus faecium ATCC 8043; settings: organism code II; BHI agar, 35-37° C., 20 to 24 hours; unit assumed
How it was run: as §1

[16] = system: Staphylococcus aureus A-5278; settings: organism code CC; BHI agar, 35-37° C., 20 to 24 hours; unit assumed
How it was run: as §1

[17] = system: Streptococcus agalactiae CMX 508; settings: organism code KK; BHI agar, 35-37° C., 20 to 24 hours; unit assumed
How it was run: as §1

Escherichia coli SS = settings: organism code RR; BHI agar, 35-37° C., 20 to 24 hours; unit assumed
How it was run: as §1

[18] = system: Staphylococcus aureus 1775; settings: organism code GG; BHI agar, 35-37° C., 20 to 24 hours; unit assumed
How it was run: as §1

[19] = system: Streptococcus Pneumonia ATCC6303; settings: organism code XX; BHI agar, 35-37° C., 20 to 24 hours; unit assumed
How it was run: as §1

[20] = system: Micrococcus luteus ATCC 9341; settings: organism code OO; BHI agar, 35-37° C., 20 to 24 hours; unit assumed
How it was run: (§2)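 Test compound serially diluted in Brain Heart Infusion agar across twelve plates; inocula of 1:100 dilution (1:10 for slow growers such as Streptococcus) applied by Steers replicator. MIC taken visually as lowest concentration giving no growth, slight haze or sparse isolated colonies versus drug-free growth control.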

[21] = system: Streptococcus pyogenes EES61; settings: organism code LL; BHI agar, 35-37° C., 20 to 24 hours; unit assumed
How it was run: as §1

[22] = system: Staphylococcus aureus NCTC10649M; settings: organism code EE; BHI agar, 35-37° C., 20 to 24 hours; unit assumed
How it was run: as §1

[23] = system: Micrococcus luteus ATCC 4698; settings: organism code PP; BHI agar, 35-37° C., 20 to 24 hours; unit assumed
How it was run: as §2

Row | Structure (SMILES) | MIC [1] [µg/mL] | MIC [2] [µg/mL] | MIC [3] [µg/mL] | MIC [4] [µg/mL] | MIC [5] [µg/mL] | MIC [6] [µg/mL] | MIC [7] [µg/mL] | MIC [8] [µg/mL] | MIC [9] [µg/mL] | MIC (Escherichia coli DC-2) [µg/mL] | MIC [10] [µg/mL] | MIC [11] [µg/mL] | MIC (Candida albicans CCH 442) [µg/mL] | MIC [12] [µg/mL] | MIC [13] [µg/mL] | MIC [14] [µg/mL] | MIC (Escherichia coli JUHL) [µg/mL] | MIC [15] [µg/mL] | MIC [16] [µg/mL] | MIC [17] [µg/mL] | other results
1 | CC[C@H]1OC(=O)[C@H](C)C(=O)[C@H](C)[C@@H](O[C@@H]2O[C@H](C)C[C@H](N(C)C)[C@H]2O)[C@](C)(OCC#Cc2ccc(-c3ccc(C=O)o3)cc2)C[C@@H](C)C(=O)[C@H](C)[C@H]2NC(=O)O[C@@]21C [Example 24] | 2 (≈ 2.48 µM) | 0.39 (≈ 0.483 µM) | 0.39 (≈ 0.483 µM) | 0.39 (≈ 0.483 µM) | 0.25 (≈ 0.31 µM) | 3.1 (≈ 3.84 µM) | 0.39 (≈ 0.483 µM) | 0.1 (≈ 0.124 µM) | 0.1 (≈ 0.124 µM) | > 100 | 0.39 (≈ 0.483 µM) | 0.03 (≈ 0.0372 µM) | > 100 | 0.78 (≈ 0.967 µM) | 25 (≈ 31 µM) | 8 (≈ 9.91 µM) | > 100 | 0.2 (≈ 0.248 µM) | > 100 | 0.1 (≈ 0.124 µM) | MIC (Escherichia coli SS): 1.56 µg/mL (≈ 1.93 µM); MIC [18]: > 100 µg/mL; MIC [19]: 0.03 µg/mL (≈ 0.0372 µM); MIC [20]: 0.02 µg/mL (≈ 0.0248 µM); MIC [21]: 0.1 µg/mL (≈ 0.124 µM); MIC [22]: 0.39 µg/mL (≈ 0.483 µM); MIC [23]: 0.39 µg/mL (≈ 0.483 µM)
2 | CC[C@H]1OC(=O)[C@H](C)C(=O)[C@H](C)[C@@H](O[C@@H]2O[C@H](C)C[C@H](N(C)C)[C@H]2O)[C@](C)(OCC#Cc2ccc(-c3cccs3)s2)C[C@@H](C)C(=O)[C@H](C)[C@H]2NC(=O)O[C@@]21C [Example 25] | 0.25 (≈ 0.312 µM) | 0.1 (≈ 0.125 µM) | 0.2 (≈ 0.25 µM) | 0.1 (≈ 0.125 µM) | 0.125 (≈ 0.156 µM) | 0.39 (≈ 0.487 µM) | 0.1 (≈ 0.125 µM) | 0.1 (≈ 0.125 µM) | 0.39 (≈ 0.487 µM) | > 100 | 0.2 (≈ 0.25 µM) | ≤ 0.004 | 12.5 (≈ 15.6 µM) | 0.2 (≈ 0.25 µM) | 1.56 (≈ 1.95 µM) | 2 (≈ 2.5 µM) | 100 (≈ 125 µM) | 0.1 (≈ 0.125 µM) | 25 (≈ 31.2 µM) | 0.1 (≈ 0.125 µM) | MIC (Escherichia coli SS): 0.2 µg/mL (≈ 0.25 µM); MIC [18]: 25 µg/mL (≈ 31.2 µM); MIC [19]: ≤ 0.004 µg/mL; MIC [20]: 0.05 µg/mL (≈ 0.0624 µM); MIC [21]: 0.005 µg/mL (≈ 0.00624 µM); MIC [22]: 0.2 µg/mL (≈ 0.25 µM); MIC [23]: 0.2 µg/mL (≈ 0.25 µM)
3 | CC[C@H]1OC(=O)[C@H](C)C(=O)[C@H](C)[C@@H](O[C@@H]2O[C@H](C)C[C@H](N(C)C)[C@H]2O)[C@](C)(OCC#Cc2ccc(-c3ccc(Cl)s3)s2)C[C@@H](C)C(=O)[C@H](C)[C@H]2NC(=O)O[C@@]21C [Example 26] | 0.5 (≈ 0.598 µM) | 0.2 (≈ 0.239 µM) | 0.2 (≈ 0.239 µM) | 0.2 (≈ 0.239 µM) | 0.25 (≈ 0.299 µM) | 0.39 (≈ 0.467 µM) | 0.2 (≈ 0.239 µM) | 0.05 (≈ 0.0598 µM) | 0.1 (≈ 0.12 µM) | > 100 | 0.2 (≈ 0.239 µM) | 0.03 (≈ 0.0359 µM) | > 100 | 0.2 (≈ 0.239 µM) | 3.1 (≈ 3.71 µM) | 4 (≈ 4.79 µM) | > 100 | 0.1 (≈ 0.12 µM) | 12.5 (≈ 15 µM) | ≤ 0.005 | MIC (Escherichia coli SS): 1.56 µg/mL (≈ 1.87 µM); MIC [18]: 12.5 µg/mL (≈ 15 µM); MIC [19]: 0.03 µg/mL (≈ 0.0359 µM); MIC [20]: 0.05 µg/mL (≈ 0.0598 µM); MIC [21]: 0.02 µg/mL (≈ 0.0239 µM); MIC [22]: 0.2 µg/mL (≈ 0.239 µM); MIC [23]: 0.2 µg/mL (≈ 0.239 µM)
4 | CC[C@H]1OC(=O)[C@H](C)C(=O)[C@H](C)[C@@H](O[C@@H]2O[C@H](C)C[C@H](N(C)C)[C@H]2O)[C@](C)(OCC#Cc2ccc(-c3nccs3)s2)C[C@@H](C)C(=O)[C@H](C)[C@H]2NC(=O)O[C@@]21C [Example 28] | 1 (≈ 1.25 µM) | 0.05 (≈ 0.0623 µM) | 0.05 (≈ 0.0623 µM) | 0.05 (≈ 0.0623 µM) | 0.25 (≈ 0.312 µM) | 0.2 (≈ 0.249 µM) | 0.05 (≈ 0.0623 µM) | ≤ 0.005 | 0.05 (≈ 0.0623 µM) | 12.5 (≈ 15.6 µM) | 0.05 (≈ 0.0623 µM) | 0.03 (≈ 0.0374 µM) | > 100 | 0.1 (≈ 0.125 µM) | 12.5 (≈ 15.6 µM) | 2 (≈ 2.49 µM) | 25 (≈ 31.2 µM) | 0.05 (≈ 0.0623 µM) | > 100 | 0.02 (≈ 0.0249 µM) | MIC (Escherichia coli SS): 0.1 µg/mL (≈ 0.125 µM); MIC [18]: > 100 µg/mL; MIC [19]: 0.03 µg/mL (≈ 0.0374 µM); MIC [20]: 0.01 µg/mL (≈ 0.0125 µM); MIC [21]: ≤ 0.005 µg/mL; MIC [22]: 0.1 µg/mL (≈ 0.125 µM); MIC [23]: 0.1 µg/mL (≈ 0.125 µM)
